In test [1] the test system is melanocortin receptor (Mc4r and Mc3r). Description: Food intake following saline or MTII in Mrap2+/+ vs. Mrap2−/− mice. Type of test: in vivo. To be noted: young (age 38-45 days) Mrap2−/− mice; 2 μg/g body weight, i.p. The text has this: FIG. 5A depicts images of the appearance of male and female Mrap^+/+ and Mrap2^−/− mice. Left panel: External appearance on standard chow (age 175 days). Upper right: mesenteric fat in female Mrap^+/+ and Mrap2^−/− mice (age 175 days). Lower right: Brown adipose tissue (BAT) in female Mrap^+/+ and Mrap2^−/− mice (age 175 days). FIG. 5B depicts the level of serum leptin in Mrap2^+/+ and Mrap2^−/− mice. Left panel: Mrap2^+/+ vs. Mrap2^−/− ad libitum fed male (n=4 vs. 6) and female (n=8 vs. 4) mice (ages 302-349 days). Right panel: Mrap2^+/+ vs. Mrap2^−/− food-restricted, weight-matched male (n=4 vs. 6, weight=27.4±0.6 vs. 24.8±0.2 g), and female (n=4 vs. 6, weight=21.5±0.6 vs. 20.8±0.2 g) mice (ages 135-151 days). *p=0.005, **p<0.00001. FIG. 5C depicts the level of fasting serum insulin in Mrap2^+/+ and Mrap2^−/− male (n=4 vs. 6) and female (n=6 vs. 8) mice (ages 88-194 days). There was no significant difference between genotypes of either gender. FIG. 5D depicts the results of a glucose tolerance test (intraperitoneal) in Mrap2^+/+ and Mrap2^−/− male (n=4 vs. 6) and female (n=6 vs. 8) mice (ages 88-194 days). There was no significant difference between genotypes of either gender. FIG. 5E depicts levels of blood corticosterone in morning, evening, and following 30 minutes of restraint stress in Mrap2^+/+ and Mrap2^−/− male (n=4 vs. 3) and female (n=6 vs. 7) mice (ages 124-178 days). […]

For test [2], the target named is T1, Mc3r (Mus musculus, UniProt P33033).
T1 construct: expressed in transfected cells; host or cells: CHO cells
In words: Effect of Mrap2 on Mc3r signaling: cAMP reporter (CRELuc) activity in transfected CHO cells. Type of test: cell-based. To be noted: Mc3r+Mrap2 vs. Mc3r, at the two highest αMSH doses (0-10 nM, 5 h). The text has this: FIG. 6A depicts graphs of food intake (left panel) and body weight (right panel) in female Mrap2^flox/flox vs. Sim1^Cre: Mrap2^flox/flox mice. Sim1^Cre::Mrap2^flox/flox mice were either ad libitum-fed or pair-fed starting at age 70 days (upward arrow) to ad libitum-fed Mrap2^flox/flox mice. […] FIG. 6B depicts graphs of body weights in mice with combined knockout of Mrap2 and Mc4r. Top panels: Body weights in mixed Mrap^+/−::Mc4r^+/− genotypes (male Mrap^+/−::Mc4r^+/−, n=10; Mrap^+/+::Mc4r^+/−, n=10; Mrap^+/−::Mc4r^+/+, n=8; Mrap^+/+::Mc4r^+/+, n=9; female Mrap^+/−: Mc4r^−/−, n=9; Mrap^+/+::Mc4r^−/−, n=12; Mrap^+/−::Mc4r^+/+, n=8; Mrap^+/+::Mc4r^+/+, n=8). Bottom panels: Body weights in mixed Mrap^−/−::Mc4r^−/− genotypes (male Mrap^−/−:Mc4r^−/−, n=9; Mrap^+/+::Mc4r^−/−, n=8; Mrap^−/−: Mc4r^+/+, n=8; Mrap^+/+::Mc4r^+/+, n=9; female Mrap^−/−::Mc4r^−/−, n=7; Mrap^+/+:::Mc4r^−/−, n=8; Mrap^−/−::Mc4r^+/+, n=9; Mrap^+/+:::Mc4r^+/+, n=8). *p<0.05, **p<0.001 by ANOVA. FIG. 6C depicts the results of co-immunoprecipitation assay between Mrap2 and Mc4r. Transfection into CHO cells of Myc-tagged Mrap2 and GFP-tagged Mc4r was followed by anti-Myc immunoprecipitation and anti-GFP immunoblotting. […] Right panel: cAMP activity of these same constructs, expressed as percent induction following 0-10 nM αMSH, relative to 0 nM αMSH. *p<0.0001, Mc3r+Mrap2 vs. Mc3r at same [αMSH], by ANOVA. […]

In test [3] the target is T2, Mc4r (Mus musculus, UniProt P56450).
T2 construct: expressed in transfected cells; host or cells: CHO cells (ATCC), transient transfection with pRC/CMV constructs, pCRE-Luc and pRL-TK
In words: Mc4r bioassay for Mrap2 effect: cAMP reporter (CRELuc) activity in transfected CHO cells. Type of test: cell-based. The following applies: 0-10 nM αMSH, 5 h. The text has this:
FIGS. 3A-3C depict the interaction between Mrap2 and Mc4r. […] Top right, Cre DNA analysis by PCR. […] Molecular weight marker (M) on right (bp). Top left, Mrap2 DNA analysis in Sim1^CreBAC::Mrap2^f/f and Mrap2^f/f mice by PCR. Both genotypes contain floxed, intact Mrap2 DNA in CX, HT, and BS (314 bp in upper electropherogram, and 1013 bp in lower electropherogram, molecular weight markers on left). Only Sim1^CreBAC::Mrap2^f/f mice contain Mrap2^Del (400 bp, lower electropherogram), and only in HT and BS, but not in CX, consistent with fluorescent reporter data. No PCR products are present without added DNA (H2O). Bottom, Mrap2 mRNA expression in Sim1^CreBAC::Mrap2^f/f and Mrap2^f/f mice by RT-PCR. Both genotypes express floxed, intact Mrap2 mRNA in CX, HT, and BS (247 bp). Only Sim1^CreBAC::Mrap2^f/f mice express Mrap2^Del mRNA (147 bp), and only in HT. Global Mrap2^Del/Del mice express Mrap2^Del mRNA in all 3 sites. FIG. 3B depicts graphs of body weights of Mrap2^+/+ (male n=6, female n=11), Mrap2^−/− (male n=11, female n=7), Mrap2^f/f (male n=8, female n=12) and conditional Sim1^CreBAC::Mrap2^f/f (male n=8, female n=7) mice, all age 133 days. *p=0.04, **p=0.007, ***p=0.0002, ****p<0.0001. FIG. 3C depicts graphs of the effect of Mrap2 on Mc4r signaling. Left panel: Level of cAMP reporter activity (CRELuc) in CHO cells alone, or co-transfected with Mc4r, with or without Mrap2 or the Mrap2 knockout construct, Mrap2delE3, 5 h following exposure to 0-10 nM αMSH (n=3/group). Right panel: cAMP activity of these same constructs, expressed as percent induction following 0-10 nM αMSH, relative to 0 nM αMSH. *p<0.0001, Mc4r+Mrap2 vs. Mc4r at same [αMSH], by ANOVA. For most data points, error bars are obscured by symbols.
The coding sequences of mouse Mrap2 and Mc4r were isolated by PCR of brain cDNA (Mrap2) or genomic DNA (Mc4r) (Table S4), subcloned into TOPO-pCRII™ (Invitrogen, Carlsbad, Calif.), sequence-verified, and ligated into pRC/CMV (Invitrogen, Carlsbad, Calif.). Mrap2delE3, identical to the product of Mrap2^−/− mice, was also created and ligated into pRC/CMV. […]

T2 sequence (P56450 whole entry): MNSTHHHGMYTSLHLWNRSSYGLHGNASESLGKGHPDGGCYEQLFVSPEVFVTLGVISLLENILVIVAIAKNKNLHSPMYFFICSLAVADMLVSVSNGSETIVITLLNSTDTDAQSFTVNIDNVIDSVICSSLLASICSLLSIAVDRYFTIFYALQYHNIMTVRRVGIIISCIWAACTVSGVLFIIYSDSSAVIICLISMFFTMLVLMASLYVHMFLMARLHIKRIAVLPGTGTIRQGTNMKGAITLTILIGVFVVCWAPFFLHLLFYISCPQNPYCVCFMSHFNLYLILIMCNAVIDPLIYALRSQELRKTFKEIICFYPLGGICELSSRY
T1 sequence (P33033 whole entry): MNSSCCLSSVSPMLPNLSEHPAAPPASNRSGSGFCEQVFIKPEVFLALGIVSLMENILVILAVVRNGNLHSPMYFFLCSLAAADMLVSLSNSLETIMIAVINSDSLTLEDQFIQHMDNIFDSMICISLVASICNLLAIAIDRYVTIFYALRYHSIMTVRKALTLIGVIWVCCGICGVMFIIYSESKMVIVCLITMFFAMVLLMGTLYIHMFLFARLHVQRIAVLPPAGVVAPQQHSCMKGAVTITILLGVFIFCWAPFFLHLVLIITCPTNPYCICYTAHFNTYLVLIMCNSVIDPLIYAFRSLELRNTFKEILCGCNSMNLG

Consider “acetyl-(Nle^4, Asp^5, D-Phe^7, Lys^10)-cyclo-[…]-MSH (4-10) amide acetate salt [MTII]”, for which the “anorectic response (food intake)” value in test [1] is “intact anorectic response”.

Consider α-melanocyte stimulating hormone [αMSH], for which the “signaling through Mc3r (cAMP reporter activity)” value in test [2] is reported as “increased signaling”. For the same substance, the “increase above basal PKA activity” value is recorded as 5 fold in test [3] (CHO cells co-transfected with Mc4r and Mrap2, relative to 0 nM αMSH); below 2 fold in test [3] (CHO cells with Mc4r alone); below 2 fold in test [3] (CHO cells with Mc4r plus the Mrap2 null construct Mrap2delE3).
